From article PMC7097893 (ACS Omega, 2020)
*1 amine or outer side, *2 acyl side, *3 side chain or, on linkers, in order; H or OH if unused. Where a SMILES comes first, the peptide text is derived from it. Bridges are numbered along the chain shown (N, C = ends). Biphenyl(4,4'-CH2)2 = c1cc(-c2ccc(C[*:2])cc2)ccc1C[*:1]

Legend:
circular dichroism = conditions: 10 mM Tris-HCl; pH 7; 25 °C; 50 uM
[1] = format: physicochemical; conditions: pH 7
galectin-3 (Gal-3) = galectin-3 (Gal-3) (Homo sapiens, UniProt P17931); format: binding
[2] = molecular target: galectin-3 (Gal-3) carbohydrate-binding domain; conditions: read-out: Kd to Gal-3; cited from earlier work

galectin-3 (Gal-3), sequence (P17931 whole entry, the tested form may be a part): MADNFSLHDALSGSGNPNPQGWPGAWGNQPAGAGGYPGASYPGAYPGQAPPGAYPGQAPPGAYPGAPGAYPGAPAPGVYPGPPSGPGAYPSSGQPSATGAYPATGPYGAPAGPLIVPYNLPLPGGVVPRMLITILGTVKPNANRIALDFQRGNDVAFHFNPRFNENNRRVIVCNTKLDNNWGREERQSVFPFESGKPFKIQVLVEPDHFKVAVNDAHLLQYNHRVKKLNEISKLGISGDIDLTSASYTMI

Compound: C[C@H](NC(=O)[C@H](CCCCN)NC(=O)[C@H](CCCCN)NC(=O)[C@@H]1CSCc2ccc(cc2)-c2ccc(cc2)CSC[C@H](NC(=O)[C@H](CCC(=O)O)NC(=O)[C@@H]2CCCN2C(=O)[C@H](C)NC(=O)CN)C(=O)N[C@@H](CCCCN)C(=O)N[C@@H](CCCNC(=N)N)C(=O)N[C@@H](CCCCN)C(=O)N[C@@H](CCC(=O)O)C(=O)N[C@@H](Cc2ccc(O)cc2)C(=O)N[C@@H](CCC(=O)O)C(=O)N1)C(=O)NCC(N)=O (H-GAPECKRKEYECKKAG-NH2; linker 5-12 via Biphenyl(4,4'-CH2)2)
- helicity (circular dichroism): 30%

Compound: H-GAAECAAKEAACKAAG-NH2 [control]
- helicity (α-helical content) [1]: 3.4%

Compound: C[C@H](NC(=O)CN)C(=O)N[C@@H](CCC(N)=O)C(=O)N[C@@H](CCC(=O)O)C(=O)N[C@H]1CSCc2ccc(cc2)-c2ccc(cc2)CSC[C@@H](C(=O)N[C@@H](CCCCN)C(=O)N[C@@H](CCCCN)C(=O)N[C@@H](C)C(=O)NCC(N)=O)NC(=O)[C@H](C)NC(=O)[C@@H]2CCCN2C(=O)[C@H](CCC(=O)O)NC(=O)[C@H](CCCCN)NC(=O)[C@@H]2CCCN2C(=O)[C@@H]2CCCN2C1=O (H-GAQECPPKEPACKKAG-NH2; linker 5-12 via Biphenyl(4,4'-CH2)2)
- helicity (circular dichroism): 14%

Compound: H-GAQECVYKEQSCKSAG-GGGK-(flu)-NH2 [p4-flu]
- Gal-3 binding of non-stapled peptide (fluorescent intensity change) (galectin-3 (Gal-3)): did not show significant fluorescent changes

Compound: H-GAQECPPKEPACKKAG-GGGK-(flu)-NH2 (sidechain bridge or staple) [p8-flu-BP]
- effect of excess lactose on fluorescent intensity change with Gal-3 (galectin-3 (Gal-3)): did not significantly affect

Compound: CC(=O)N[C@H]1C(O)O[C@H](CO)[C@@H](O[C@@H]2O[C@H](CO)[C@H](O)[C@H](O)[C@H]2O)[C@@H]1O (some centres unmarked) [N-acetyllactosamine]
- Kd [2]: 200 µM

Compound: H-GAPECKRKEYECKKAG-GGGK-(flu)-NH2 [p10-flu]
- Gal-3 binding of non-stapled peptide (fluorescent intensity change) (galectin-3 (Gal-3)): did not show any Gal-3 binding

Compound: CC(C)[C@@H]1NC(=O)[C@@H](NC(=O)[C@H](CCC(=O)O)NC(=O)[C@H](CCC(N)=O)NC(=O)[C@H](C)NC(=O)CN)CSCc2ccc(cc2)-c2ccc(cc2)CSC[C@@H](C(=O)N[C@@H](CCCCN)C(=O)N[C@@H](CO)C(=O)N[C@@H](C)C(=O)NCC(N)=O)NC(=O)[C@H](CO)NC(=O)[C@H](CCC(N)=O)NC(=O)[C@H](CCC(=O)O)NC(=O)[C@H](CCCCN)NC(=O)[C@H](Cc2ccc(O)cc2)NC1=O (H-GAQECVYKEQSCKSAG-NH2; linker 5-12 via Biphenyl(4,4'-CH2)2)
- helicity (circular dichroism): 32%
